From a melting point compilation (Tetko et al.; mined from patent text by program, amines drawn as free bases though some values may be those of a salt) come the findings set out here.

SMILES strings stand for the structures. Some results are limits rather than exact numbers.

In the case of `O=c1[nH]cnc2cccnc12`, the melting point was in the range of 343 to 345 °C.

`CN(CCOc1ccc([N+](=O)[O-])cc1)CCc1ccc([N+](=O)[O-])cc1` had a melting point of 74 °C.

As to `CNc1nn(C(=O)NC(C)CCc2ccccc2Cl)c(=O)n1C` (stereo not drawn), the melting point fell in the range of 133 to 135 °C.

With `COc1ccccc1OCC1(COc2ccccc2OC)NC(C(=O)O)CS1` (stereo not drawn), the melting point was 160 to 162 °C.

Turning to `O=C(Nc1ccc(N2CCS(=O)(=O)CC2)c(C(F)(F)F)c1)N1CCc2cc(Oc3cc(Cl)ncn3)ccc21`, the melting point lay in the range of 248 to 255 °C.

`CCOC(=O)c1ncn2c1CN=C(c1ccccc1Cl)c1cc([N+](=O)[O-])ccc1-2` had a melting point of 250 to 252 °C.

For `CC(C)c1cccc(C(C)C)c1NC(=O)CN1CCN(CCSc2nc3cccc(-c4cc[nH]n4)c3o2)CC1`, the melting point was 181 to 183 °C.

The compound `CS(=O)(=O)c1ccc(-c2cnn(CC(=O)c3ccc(OC(F)(F)F)cc3)c(=O)c2-c2ccc(F)cc2)cc1` showed a melting point of 160 to 161 °C.

For the compound `Cc1oc(Cc2ccccc2)c(C(=O)c2cc(C(C)C)c(O)c(C(C)C)c2)c1C`, the melting point amounted to 138 °C.

With `Cc1ccccc1NS(=O)(=O)c1cc(S(=O)(=O)Nc2ccccc2C)c2ccccc2c1O`, the melting point was in the range of 220 to 222 °C.

As for `O=Cc1ccc2cccnc2c1`, the melting point came to 56 °C.

Take `Cc1cn(-c2cccc(N)c2)cn1`: the melting point is 117 to 119 °C.

Consider `CC(=O)O[C@H]1[C@H](OC(C)=O)CSC(Oc2ccc3c(ccn3C(=O)OC(C)(C)C)c2)[C@@H]1OC(C)=O` (stereo partly drawn), for which the melting point fell in the range of 58 to 62 °C.

Consider `O=C(O)c1cc(Br)c2cccnc2c1O`, for which the melting point lay in the range of 244 to 246 °C.

Compound `Cc1c(NC(=O)c2ccc(OC[C@@H]3CCCO3)cc2)ccc2c1cc(CNC1CCCC1)n2C` yielded a melting point of 189 °C.

In turn, `CNc1nc(-c2ccc(OCc3ccc(Cl)cc3)cc2)cs1` gave a melting point of 158 to 159 °C.

On to `CCCCCCCc1cc(O)cc(O)c1C(=O)OCc1ccccc1`, for which the melting point was determined as 104 °C.

Take `COc1ccc(C2(O)c3cc(NC(=O)CC(C)(C)C)c(C)c(C)c3OC2(C)C)cc1` (stereo not drawn): the melting point fell in the range of 110 to 111 °C.

Regarding `CCOC(=O)C1=C(C)N(C(C)=O)C(c2csc(C)n2)=NC1c1ccc(C)cc1` (stereo not drawn), the melting point was in the range of 187 to 188 °C.

With `CCOC(=O)OC1=C(c2cc(C)ccc2C)C(=O)NC1CC1CCS(=O)CC1` (stereo not drawn), the melting point was in the range of 103 to 106 °C.

Turning to `Clc1ccc2[nH]c3c4c(Cl)cccc4nc-3cc2c1`, the melting point was 221 to 222 °C.

Consider `O=c1[nH]c2ccc(Cn3ccnc3)cc2[nH]1`, for which the melting point was 254 °C.

`CC(=O)Nc1ccccc1C(=O)C=Cc1ccncc1`: the melting point is 130 °C.

`COc1cccc2c1CCn1cc(-c3ccccc3)nc1C2OC1CCN(C)CC1` (stereo not drawn): the melting point worked out at 73 °C.

Consider `CNC(=O)c1cc(Oc2ccc3c(C(=O)Nc4cccc(C(F)(F)F)c4)cccc3c2)ccn1`, for which the melting point was in the range of 175 to 177 °C.

With `CCC(=O)C(C=O)=Cc1cc(O)c(O)c(C#N)c1`, the melting point is 228 to 232 °C.

As to `N#Cc1cccc(C(=O)N[C@H]2C[C@H](C(=O)O)Nc3cc(Cl)cc(Cl)c32)c1` (relative stereo), the melting point lay within 229 to 231 °C.

`COc1ccc(NC(=O)N(C)Cc2cccc3c2CN(C2CCC(=O)NC2=O)C3=O)cc1` (stereo not drawn): the melting point lay within 245 to 247 °C.

As for `CCN(CC)CCC/C=C/c1cc2ncc(C#N)c(Nc3ccc(Sc4nccn4C)c(Cl)c3)c2cc1OC`, the melting point fell in the range of 229 to 233 °C.

`NC(=O)c1ccc([N+](=O)[O-])cc1[N+](=O)[O-]` came in with a melting point of 202 to 204 °C.

With `O=[N+]([O-])C=C1SCCN1Cc1ccco1`, the melting point was in the range of 190 to 192 °C.

Compound `COc1ccccc1CCN(CCCCC(=O)c1ccc2c(c1)CCN2C(=O)Nc1ccccc1)C(=O)OC(C)(C)C` gave a melting point of 136 to 137 °C.

As to `COC(=O)c1cc(NS(C)(=O)=O)ccc1OC`, the melting point lay in the range of 82 to 83 °C.

`Nc1ccc(C2OCCO2)nc1` returned a melting point of 81 to 82 °C.

With `CSc1nc(-c2cc(C(C)(C)C)c(O)c(C(C)(C)C)c2)cs1`, the melting point lay within 92 to 93 °C.

Take `OCC1OC(n2c(Br)nc3cc(Cl)c(Cl)cc32)CC1O` (stereo not drawn): the melting point was in the range of 187 to 188 °C.

In turn, `CC1CC(C)(C)OOC(C)(CCC(=O)NNC(=O)CCC(=O)O)O1` (stereo not drawn) gave a melting point of 122 to 126 °C.

In the case of `CCOc1ccc(C(=O)CCC(=O)Nc2cn(Cc3ccccc3)nc2-c2ccccc2)cc1`, the melting point fell in the range of 138 to 141 °C.

For `CCOC(=O)Cc1nc(-c2ccc(Cl)cc2)oc1-c1cccs1`, the melting point fell in the range of 119 to 120 °C.

As to `CCOC(=O)NC(=O)C(Cl)C(C)=O` (stereo not drawn), the melting point lay within 69.5 to 70 °C.

`O=C(O)c1cn(-c2ccc(F)cc2)c2c(F)c(N3CCCC3)c(F)cc2c1=O`: the melting point lay in the range of 282 to 284 °C.

The compound `O=C1C(CCC(O)c2ccc(F)cc2)C(c2ccc(-c3cccc(O)c3)cc2)N1c1ccc(F)cc1` (stereo not drawn) displayed a melting point of 107 °C.

`CC1=C(OCC(C)C)CC(C)(C)C1=O`: the melting point stood at 63 °C.

As to `COC(=O)c1cc(C(=O)O)cc(-n2cccc2)c1`, the melting point was in the range of 178 to 179 °C.

`O=S(=O)(Cc1ccc(Cl)c(Cl)c1)Cc1ccc(Cl)c(Cl)c1`: the melting point is 177 °C.

For `CN1C(=O)C(C(=O)Nc2ccc(Cl)c(Cl)c2)S(=O)(=O)c2cc(Cl)ccc21` (stereo not drawn), the melting point lay in the range of 176 to 178 °C.

Consider `Nc1ncc(-c2cccc3ccccc23)o1`, for which the melting point was 155 to 162 °C.

`COC(=O)c1cc(-c2ccncc2)[nH]c1-c1ccncc1` returned a melting point greater than 270 °C.

With `CCNc1nc2ccc(CCc3ccccn3)cc2o1`, the melting point fell in the range of 57 to 59 °C.

`COC(=O)Nc1nccc(Oc2ccc3c(C(=O)Nc4cccc(C(F)(F)F)c4)cccc3c2)n1` came in with a melting point of 199 to 200 °C.

With `NS(=O)(=O)c1cc(C(=O)O)cc(NCc2ccccc2)c1Nc1ccccc1`, the melting point lay within 248 to 249 °C.

`CC(=O)Nc1cccc(-c2nc3ncccc3o2)c1` came in with a melting point of 202 °C.

As to `CCCc1c(OC(C(=O)O)c2ccc(Cl)c(Cl)c2)ccc(C(C)=O)c1O` (stereo not drawn), the melting point fell in the range of 177 to 180 °C.

In the case of `COC(=O)CCc1ccc(OCC(C)NCC(O)c2ccccc2)cc1` (stereo not drawn), the melting point was 103 to 104 °C.

In the case of `Cc1cc(-c2cc(C(F)F)n3ncc(-c4ccncc4)c3n2)ccc1C(F)(F)F`, the melting point was 236 °C.

`O=C(CCCCCN1CCC(c2cccc(C(F)(F)F)c2)CC1)N1Cc2ccccc2C1` showed a melting point of 71 °C.

The compound `Cc1cc(OCc2ccccc2)cc(NC(=O)OC(C)C)c1C(=O)O` showed a melting point of 137 to 139 °C.

`Cc1ccc(C(=O)Nc2nc(=O)n(C)cc2F)cc1` returned a melting point of 229 to 230 °C.

Take `COc1ccc(C2CC(n3cncn3)c3ccccc3N2)cc1` (stereo not drawn): the melting point fell in the range of 170 to 172 °C.

Regarding `C[C@H]1COc2c(N3C[C@@H]4CCOC[C@@]4(N)C3)c(F)cc3c(=O)c(C(=O)O)cn1c23`, the melting point was greater than 300 °C.

In turn, `O=C(O)COc1ccc2c(-c3ccc(Cl)cc3)noc2c1` came in with a melting point of 207 °C.

Take `COc1ccc(-c2nc(S(=O)CC3OCCO3)[nH]c2-c2ccc(OC)cc2)cc1` (stereo not drawn): the melting point fell in the range of 203 to 204 °C.

Compound `Cc1ccc(-n2nc3c(cc2=O)CCc2sc(C(C)O)cc2-3)cc1` (stereo not drawn) showed a melting point of 146 to 148 °C.

Turning to `C[N+]1([O-])CC(CO)(c2ccccn2)C(=O)c2ccccc21` (stereo not drawn), the melting point lay in the range of 198 to 200 °C.

With `COc1ccc(Nc2ccccc2C(=O)CS(C)=O)cc1` (stereo not drawn), the melting point lay within 115 to 116 °C.

Compound `CCOCCOC(=O)C(=O)Nc1nc(-c2c(C)cc(C)cc2C)cs1` came in with a melting point of 124 to 125 °C.

For `CCN(O)C(=O)Cc1ccc2c(c1)C(=O)c1ccccc1CO2`, the melting point lay in the range of 119 to 121 °C.

Turning to `CCCCCCSc1ssc(=S)c1-c1cc(C(C)(C)C)c(O)c(C(C)(C)C)c1`, the melting point was determined as 110 °C.

In turn, `Nc1nc2c(ncn2Cc2cccnc2)c(=O)[nH]1` came in with a melting point greater than 300 °C.

Take `COc1cc2c(cc1OC)C(C(CO)CO)N(C(=O)c1ccccc1)CC2` (stereo not drawn): the melting point was in the range of 161 to 163 °C.

Regarding `COc1ccc(-c2[nH]nc3c2C(=O)c2c(NC(=O)CN4CCSCC4)cccc2-3)cc1`, the melting point came to 298 °C.

In the case of `CS(=O)(=O)C(=C1CN(C(c2ccccc2)c2ccccc2)C1)c1ccc(F)cc1`, the melting point stood at 186 °C.

`CCN(CC)CC(O)Cn1ccnc1[N+](=O)[O-]` (stereo not drawn) gave a melting point of 92 to 93 °C.

With `CCc1nc(Cl)c(C=O)n1Cc1ccc2oc(-c3ccccc3NC(=O)OC(C)(C)C)c(Br)c2c1`, the melting point was in the range of 65 to 66 °C.

For `CCN(CC)C(=O)c1cnn(C)c1C(=O)Nc1ccn2nc(-c3ccccc3)nc2c1`, the melting point was in the range of 177 to 179 °C.

For `COc1ncccc1Nc1c(NC(NC(=O)c2cccc(C)c2)C(C)(C)C)c(=O)c1=O` (stereo not drawn), the melting point was 224 to 226 °C.

As for `CCN1CC(NC(=O)c2cc(Cl)c(N)cc2OC)CN1CC`, the melting point fell in the range of 117 to 119 °C.

Turning to `CC(C)CC(C(=O)Nc1cc(Cl)cc(Cl)c1)N1C(=O)C=CC1=O` (stereo not drawn), the melting point came out at 150 °C.

The compound `COc1ccc(-c2cc3nccnc3[nH]2)cc1OCC(=O)O` had a melting point of 330 to 332 °C.

As to `COc1cccc(C23CC(=O)NC(=O)C2=CCC(C)C3)c1` (stereo not drawn), the melting point is 218 to 221 °C.

For the compound `Cc1c(-c2ccc(Cl)cc2)nn(C)c1C(F)(F)F`, the melting point lay within 87 to 88.5 °C.

`CCOC(=O)c1cnc(Cl)c2c(C)n[nH]c12`: the melting point worked out at 180 °C.

For the compound `CCOC(=O)c1cc2c(nc1C)C(CBr)CCCC2` (stereo not drawn), the melting point fell in the range of 50 to 51 °C.

`CC(=Cc1cccc(SC(F)(F)F)c1)[N+](=O)[O-]` displayed a melting point of 48 °C.

`COc1ccccc1[C@@]1(O)[C@H](O)CC(c2ccccc2)(c2ccccc2)[C@@H]2CN(C(=O)Cc3ccc(N)cc3)C[C@@H]21` (racemic) had a melting point of 188 °C.

`CCn1ncc2c(NCC3CCCCC3)c3cccc(Br)c3nc21` returned a melting point of 160 to 162 °C.

As to `O=C(O)c1cc(Cl)cc2cc(-c3ccccc3)oc12`, the melting point is 255 to 258 °C.

In turn, `COc1ccc2c(c1)Cc1cc(CC(=O)O)ccc1-2` came in with a melting point of 200 to 202 °C.

The term melting point denotes the temperature, or range, at which the solid turns liquid.
